Entries after “also recorded” stand apart in the source; their conditions may differ.
Test system: DRG axons
Test: Axon degeneration assay (axotomy of mouse DRG drop cultures)
Format: cell-based
Procedure: Mouse dorsal root ganglion neurons (DRGs) were dissected out of E12.5 CD1 mice (50 ganglia per embryo) and incubated with 0.5% Trypsin solution containing 0.02% EDTA (Gibco) at 37° C. for 15 min. The cells were then triturated by gentle pipetting and washed 3 times with DRG growth medium (Neurobasal medium (Gibco) containing 2% B27 (Invitrogen), 100 ng/ml 2.5S NGF (Harland Bioproducts), […] 5-fluoro-2′deoxyuridine (Sigma), penicillin, and streptomycin). Cells were suspended in the DRG growth medium. DRG drop cultures were created by spotting 5000 cells/well into the center of each well of a 96-well tissue culture plate coated with poly-D-Lysine (0.1 mg/ml; Sigma) and laminin ([…]; Invitrogen). Cells were allowed to adhere to the plates in a humidified tissue culture incubator (5% CO2) for 15 min and then DRG growth medium was gently added ([…]).
To study the axonal protective effects of combining NR supplementation with a SARM1 inhibitor, 6 day-old mouse DRG drop cultures were preincubated with 100 μM NR for 24 hours before axotomy. 2 hours prior to axotomy, DRG cultures were treated with SARM1 inhibitors, in the continued presence of 100 μM NR. Potent SARM1 inhibitors were selected from two classes: isoquinoline and isothiazole SARM1 inhibitors. Isoquinoline SARM1 inhibitors tested included I-26 and I-86, while isothiazole SARM1 inhibitors tested included II-6 and II-32. The SARM1 inhibitors were tested using concentrations ranging from 0.1 to 33 μM.
A manual axotomy was performed at time 0 by transecting the axons of the DRG neurons with a blade. After axotomy, DRG cultures remained exposed to the to SARM1 inhibitor alone, 100 μM NR alone, or the combination of SARM1 inhibitor and NR. At either 16 or 24 hours, DRG cultures were fixed in a buffered solution containing 1% PFA and sucrose and stored at 4° C. prior to imaging. Bright-field images of DRG axons and cell bodies were collected using the 20× water immersion lens of a Phenix automated confocal microscope (PerkinElmer) and quantitation of axonal damage was performed using in-house developed scripts (Acapella, PerkinElmer). The effect of NR alone in protecting distal axons from fragmentation was determined at a concentration of 100 μM. The effect of combining 100 μM NR with varying concentrations of a SARM1 inhibitor was compared to the individual protective effects of either 100 μM of NR alone or an equivalent concentration of a SARM1 inhibitor alone.

[1] = 1.1 μM SARM1 inhibitor alone, 24 h post-axotomy
[2] = 3.3 μM SARM1 inhibitor alone, 24 h post-axotomy
[3] = 3.3 μM SARM1 inhibitor alone, 16 h post-axotomy

Ic1cccc2cnccc12 [I-26]
axonal protection (degeneration index of DRG axons) [1]: no statistically significant benefit | axonal protection (degeneration index of DRG axons) [2]: more protection than with NR alone | axonal protection (degeneration index of DRG axons) (SARM1 inhibitor alone, concentration not stated in the sentence (1.1 or 3.3 μM tested), 16 h post-axotomy): modest amount of axonal protection

COc1cc(Br)c2ccncc2c1 [I-86]
axonal protection (degeneration index of DRG axons) (1.1 μM SARM1 inhibitor alone, 16 h post-axotomy): NR alone provided greater protection than 1.1 μM compound I-86 alone | axonal protection (degeneration index of DRG axons) [1]: less protection than NR alone | axonal protection (degeneration index of DRG axons) [3]: greater protection than NR alone

N#Cc1c(O)nsc1Nc1ccccc1C(F)(F)F [II-6]
axonal protection (degeneration index of DRG axons) [3]: stronger protection that NR alone; also recorded: stronger protection than NR alone | axonal protection (degeneration index of DRG axons) [2]: stronger protection than NR alone

COCCn1sc(Nc2ccccc2C(F)(F)F)c(C#N)c1=O [II-32]
axonal protection (degeneration index of DRG axons) (0.11 μM SARM1 inhibitor alone, 16 h post-axotomy): NR alone provided greater protection than 0.11 μM and 0.33 μM of compound II-32 alone | axonal protection (degeneration index of DRG axons) (0.11 μM SARM1 inhibitor alone, 24 h post-axotomy): NR alone provided greater protection than 0.11 μM and 0.33 μM compound II-32 alone | axonal protection (degeneration index of DRG axons) (0.33 μM SARM1 inhibitor alone, 16 h post-axotomy): NR alone provided greater protection than 0.11 μM and 0.33 μM of compound II-32 alone | axonal protection (degeneration index of DRG axons) (0.33 μM SARM1 inhibitor alone, 24 h post-axotomy): NR alone provided greater protection than 0.11 μM and 0.33 μM compound II-32 alone | axonal protection (degeneration index of DRG axons) (1 μM SARM1 inhibitor alone, 16 h post-axotomy): greater protection than NR alone | axonal protection (degeneration index of DRG axons) (1 μM SARM1 inhibitor alone, 24 h post-axotomy): greater protection than NR alone

NC(=O)c1ccc[n+]([C@@H]2O[C@H](CO)[C@@H](O)[C@H]2O)c1 [NR, 1-(β-D-ribofuranosyl)nicotinamide, reference compound]
axonal protection (degeneration index of DRG axons) (100 μM NR alone, 16 h post-axotomy): modest amount of axonal protection | axonal protection (degeneration index of DRG axons) (100 μM NR alone, 24 h post-axotomy): modest level of protection
